Results as given in patent US6417216B1 (priority 2000, dated 2002).

Tested on: Phytophthora infestans
Assay type: in vivo
Details: neighbouring plot, mancozeb at 1600 g/ha

For mancozeb, the “efficacy, compared with the composition of compounds (I) and (II)” value was “about one-half”.
